Data as given in patent US20160257697A1, “THIOPHENE-SUBSTITUTED TETRACYCLIC COMPOUNDS AND METHODS OFUSE THEREOF FOR THE TREATMENT OF VIRAL DISEASES” (priority 2013, published 2016).
Where two headings read alike, the source gives them in different places.

Experiments:
Test in all cases: microbe, parasite or virus in culture
Format in all cases: cell-based, Hepatitis C virus (HCV)
HCV replicon 1AQ30D = details: Replicon Assay B
HCV replicon 1B = details: Replicon Assay B
HCV replicon 1A = details: Replicon Assay A
Procedure, shortened: (§1)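 Cells seeded 2000/well + compound; 0.5% DMSO, 5% FBS; harvest day 3, lyse. Multiplex TaqMan RT-PCR for replicon (Neo probe) and cyclophilin RNA; amounts from Ct vs log(ng) linear regression of replicon total RNA standards.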

HCV replicon 2B = details: Replicon Assay A
Procedure, shortened: as §1

HCV replicon 1AY93H = details: Replicon Assay A
Procedure, shortened: as §1

[1] = read-out: 1A Q30D IC50, replicon 1AQ30D
[2] = read-out: 1A Y93H IC50, replicon 1AY93H
[3] = Hepatitis C virus, read-out: 2B IC50 (nM), replicon 2B
[4] = Hepatitis C virus, read-out: 1A Y93H IC50 (nM), replicon 1AY93H
[5] = read-out: 1A Q30D IC50, HCV replicon 1A Q30D
[6] = read-out: 2B IC50, HCV replicon 2B
[7] = read-out: 1A Y93H IC50, HCV replicon 1A Y93H
[8] = Hepatitis C virus, read-out: 1A Q30D IC50 (nM), replicon 1AQ30D

Compound | IC50 (HCV replicon 1AQ30D; [1]) [nM] | IC50 (HCV replicon 1B; Hepatitis C virus, replicon 1B) [pM] | IC50 (HCV replicon 1A; replicon 1A) [pM] | IC50 (HCV replicon 2B; read-out: 2B IC50, replicon 2B) [nM] | IC50 (HCV replicon 1AY93H; [2]) [nM] | IC50 (HCV replicon 1B; replicon 1B) [pM] | IC50 (HCV replicon 1A; Hepatitis C virus, replicon 1A) [pM] | other results
COC(=O)NC(C(=O)N1CCC[C@H]1c1ncc(-c2ccc3c(c2)cc2n3C(c3ccc(C4CC4)s3)Oc3cc(-c4cnc([C@@H]5CCCN5C(=O)[C@@H](NC(=O)OC)C5CCOCC5)[nH]4)cc(F)c3-2)[nH]1)C(C)(C)F (single isomer, unassigned) [Compound 172] | 0.018 | 1.8 | 1.5 | 0.005 | 0.004 | – | – | –
COC(=O)N[C@H](C(=O)N1CCC[C@H]1c1ncc(-c2cc(F)c3c(c2)OC(c2ccc(CC4CC4)s2)n2c-3cc3cc(-c4cnc([C@@H]5CCCN5C(=O)[C@@H](NC(=O)OC)C5CCOCC5)[nH]4)ccc32)[nH]1)C(C)C (single isomer, unassigned) [Compound 357] | 0.0165 | – | 2.1 | 0.0026 | 0.0041 | 3 | – | –
COC(=O)N[C@H](C(=O)N1CCC[C@H]1c1nc(-c2cc(F)c3c(c2)OC(c2ccc(C)s2)n2c-3cc3cc(-c4cnc([C@@H]5CCCN5C(=O)[C@@H](NC(=O)OC)C5CCOCC5)[nH]4)ccc32)c[nH]1)C(C)C (stereo partly drawn) [Compound 58] | 0.041 | 3.4 | – | – | – | – | 1.4 | IC50 (HCV replicon 2B; [3]): 0.011 nM; IC50 (HCV replicon 1AY93H; [4]): 0.002 nM
COC(=O)N[C@H](C(=O)N1CCC[C@H]1c1ncc(-c2cc(F)c3c(c2)OC(c2ccc(CC4CC4)s2)n2c-3cc3cc(-c4cnc([C@@H]5CCCN5C(=O)[C@@H](NC(=O)OC)C(C)C)[nH]4)ccc32)[nH]1)C(C)C (single isomer, unassigned) [Compound 54] | – | – | 2 | – | – | 1.2 | – | IC50 (HCV replicon 1AQ30D; replicon 1AQ30D, read-out: 1A Q30D IC50): 0.2 nM; IC50 (HCV replicon 2B; replicon 2B, read-out: 2B IC50): 0.03 nM; IC50 (HCV replicon 1AY93H; replicon 1AY93H, read-out: 1A Y93H IC50): 0.005 nM
COC(=O)N[C@H](C(=O)N1CCC[C@H]1c1ncc(-c2cc(C)c3c(c2)OC(c2ccc(C4CC4)s2)n2c-3cc3cc(-c4cnc([C@@H]5C[C@H]6C[C@H]6N5C(=O)[C@@H](NC(=O)OC)C(C)C)[nH]4)ccc32)[nH]1)C(C)C (single isomer, unassigned) [Compound 755] | – | – | – | – | – | – | – | IC50 (HCV replicon 1AQ30D; [5]): 0.341 nM; IC50 (HCV replicon 1B; HCV replicon 1B): 1.9 pM; IC50 (HCV replicon 1A; HCV replicon 1A): 2.8 pM; IC50 (HCV replicon 2B; [6]): 0.023 nM; IC50 (HCV replicon 1AY93H; [7]): 0.022 nM
COC(=O)NC(C(=O)N1CCC[C@H]1c1ncc(-c2ccc3c(c2)cc2n3C(c3ccc(C4CC4)s3)Oc3cc(-c4cnc([C@@H]5CCCN5C(=O)[C@@H](NC(=O)OC)C(C)C)[nH]4)cc(F)c3-2)[nH]1)C1CCCCO1 (single isomer, unassigned) [Compound 342] | 1.07 | – | 1.6 | 0.166 | 0.069 | 2.6 | – | –
COC(=O)N[C@H](C(=O)N1CCC[C@H]1c1ncc(-c2ccc3c(c2)OC(c2ccc(C4CC4)s2)n2c-3cc3cc(-c4cnc([C@@H]5CCCN5C(=O)[C@@H](NC(=O)OC)C(C)C)[nH]4)ccc32)[nH]1)C(C)C (stereo partly drawn) [Compound 2] | – | 2.4 | – | – | – | – | 2.9 | IC50 (HCV replicon 1AQ30D; [8]): 0.1 nM; IC50 (HCV replicon 2B; [3]): 0.033 nM; IC50 (HCV replicon 1AY93H; [4]): 0.032 nM
COC(=O)N[C@H](C(=O)N1CCC[C@H]1c1ncc(-c2cc(F)c3c(c2)OC(c2ccc(CC4CC4)s2)n2c-3cc3cc(-c4cnc([C@@H]5CCCN5C(=O)[C@@H](NC(=O)OC)C5CCOCC5)[nH]4)ccc32)[nH]1)C(C)C (single isomer, unassigned) [Compound 356] | 0.152 | 2.5 | – | 0.0175 | 0.0214 | – | 2.5 | –
COC(=O)N[C@H](C(=O)N1CCC[C@H]1c1ncc(-c2cc(C)c3c(c2)OC(c2ccc(C4CC4)s2)n2c-3cc3cc(-c4cnc([C@@H]5C[C@H]6C[C@H]6N5C(=O)[C@@H](NC(=O)OC)C5CCOCC5)[nH]4)ccc32)[nH]1)C(C)C (single isomer, unassigned) [Compound 762] | – | – | – | – | – | – | – | IC50 (HCV replicon 1AQ30D; [5]): 0.025 nM; IC50 (HCV replicon 1B; Hepatitis C virus, HCV replicon 1B): 3 pM; IC50 (HCV replicon 1A; Hepatitis C virus, HCV replicon 1A): 2 pM; IC50 (HCV replicon 2B; [6]): 0.0048 nM; IC50 (HCV replicon 1AY93H; [7]): 0.005 nM
COC(=O)N[C@H](C(=O)C1CCC[C@H]1c1ncc(-c2ccc3c(c2)cc2n3C(c3ccc(C(F)(F)F)s3)Oc3cc(-c4cnc([C@@H]5CCCN5C(=O)[C@@H](NC(=O)OC)C(C)C)[nH]4)cc(F)c3-2)[nH]1)C(C)C (single isomer, unassigned) [Compound 89] | – | 1.5 | – | 0.063 | 0.033 | – | 1 | IC50 (HCV replicon 1AQ30D; [8]): 0.33 nM
CCc1ccc(C2Oc3cc(-c4cnc([C@@H]5CCCN5C(=O)[C@@H](NC(=O)OC)C(C)C)[nH]4)cc(F)c3-c3cc4cc(-c5cnc([C@@H]6CCCN6C(=O)[C@@H](NC(=O)OC)C6CCOCC6)[nH]5)ccc4n32)s1 (single isomer, unassigned) [Compound 336] | 1.5 | 1.1 | – | 0.128 | 0.062 | – | 2.2 | –
CCc1ccc(C2Oc3cc(-c4cnc([C@@H]5CCCN5C(=O)C(NC(=O)OC)C5CCOC(C)(C)C5)[nH]4)cc(F)c3-c3cc4cc(-c5cnc([C@@H]6CCCN6C(=O)[C@@H](NC(=O)OC)C(C)C)[nH]5)ccc4n32)s1 (single isomer, unassigned) [Compound 162] | 0.027 | – | 2.2 | 0.006 | 0.004 | 1.9 | – | –
COC(=O)NC(C(=O)N1CCC[C@H]1c1ncc(-c2cc(F)c3c(c2)OC(c2ccc(C4CCC4)s2)n2c-3cc3cc(-c4cnc([C@@H]5CCCN5C(=O)[C@@H](NC(=O)OC)C5CCOCC5)[nH]4)ccc32)[nH]1)C(C)(C)F (single isomer, unassigned) [Compound 251] | 0.4 | – | 1.2 | 0.1 | 0.06 | 2.5 | – | –
COC(=O)N[C@H](C(=O)N1CCC[C@H]1c1ncc(-c2cc(F)c3c(c2)OC(c2ccc(C4CC4)s2)n2c-3cc3cc(-c4cnc([C@@H]5CCCN5C(=O)[C@@H](NC(=O)OC)C5C[C@@H](C)O[C@@H](C)C5)[nH]4)ccc32)[nH]1)C1C[C@@H](C)O[C@@H](C)C1 (stereo partly drawn) [Compound 303] | – | 1.3 | – | – | – | – | 2.6 | IC50 (HCV replicon 1AQ30D; [8]): 0.008 nM; IC50 (HCV replicon 2B; [3]): 0.003 nM; IC50 (HCV replicon 1AY93H; [4]): 0.002 nM
CCc1ccc(C2Oc3cc(-c4cnc([C@@H]5CCCN5C(=O)[C@@H](NC(=O)OC)C(C)C)[nH]4)cc(F)c3-c3cc4cc(-c5cnc([C@@H]6C[C@H]7C[C@H]7N6C(=O)C(NC(=O)OC)C6CCOC(C)(C)C6)[nH]5)ccc4n32)s1 (single isomer, unassigned) [Compound 200] | 0.036 | 3 | 2.1 | 0.014 | 0.002 | – | – | –
COC(=O)N[C@H](C(=O)N1CCC[C@H]1c1ncc(-c2cc(F)c3c(c2)OC(c2ccc(C#N)s2)n2c-3cc3cc(-c4cnc([C@@H]5CCCN5C(=O)[C@@H](NC(=O)OC)C(C)C)[nH]4)ccc32)[nH]1)C(C)C (single isomer, unassigned) [Compound 18] | 66.7 | – | 2.2 | 3.46 | 3.13 | 3 | – | –
COC(=O)NC(C(=O)N1CCCC1c1ncc(-c2cc(F)c3c(c2)OC(c2cc4c(s2)CC(C)(C)C4)n2c-3cc3cc(-c4cnc(C5CCCN5C(=O)C(NC(=O)OC)C(C)C)[nH]4)ccc32)[nH]1)C(C)C (mixture of isomers) [Compound 846] | – | – | – | – | – | – | – | IC50 (HCV replicon 1AQ30D; HCV replicon 1A Q30D, read-out: 1A Q30D IC50): 0.302 nM; IC50 (HCV replicon 1B; HCV replicon 1B): 2.8 pM; IC50 (HCV replicon 1A; HCV replicon 1A): 2.9 pM; IC50 (HCV replicon 2B; HCV replicon 2B, read-out: 2B IC50): 0.039 nM; IC50 (HCV replicon 1AY93H; HCV replicon 1A Y93H, read-out: 1A Y93H IC50): 0.034 nM
CCc1ccc(C2Oc3cc(-c4cnc([C@@H]5CCCN5C(=O)C(NC(=O)OC)C5CCOC(C)(C)C5)[nH]4)cc(F)c3-c3cc4cc(-c5cnc([C@@H]6CCCN6C(=O)C(NC(=O)OC)C6CCOC(C)(C)C6)[nH]5)ccc4n32)s1 (single isomer, unassigned) [Compound 296] | 0.005 | – | 2.8 | 0.005 | 0.002 | 3.3 | – | –
